Laboratory results: patent publication US5079150A, “High sensitivity detection of peroxidase activity” (Becton, Dickinson and Company, priority 1988, dated 1992)

How the values were obtained:
Horseradish peroxidase = molecular target: T1, Horseradish peroxidase (Armoracia rusticana, UniProt P00433); experiment: Comparison of substrates for HRP detection on membranes, reflectance densitometer; format: biochemical; conditions: substrate 2 mg/mL, approximately three minutes
T1 sequence (P00433 31-353): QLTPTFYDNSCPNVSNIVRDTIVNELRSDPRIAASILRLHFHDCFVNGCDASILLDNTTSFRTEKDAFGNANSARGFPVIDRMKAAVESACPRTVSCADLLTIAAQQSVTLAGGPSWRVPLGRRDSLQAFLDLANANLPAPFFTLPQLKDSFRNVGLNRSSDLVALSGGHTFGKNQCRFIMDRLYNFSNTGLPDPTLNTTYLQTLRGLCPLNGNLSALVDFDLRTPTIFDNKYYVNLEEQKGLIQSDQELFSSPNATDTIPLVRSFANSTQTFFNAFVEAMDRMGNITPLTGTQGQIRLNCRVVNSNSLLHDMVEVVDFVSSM
Protocol: Horseradish peroxidase was diluted serially in 10-fold steps in a buffer containing 51 mM phosphate, 24 mM citrate, pH 5.0. Spot volumes of 1 μL of each stock were applied to either nitrocellulose (0.45 micron, Schleicher and Schuell) or IMMUNODYNE™ nylon immunoaffinity membrane (5 micron, Pall). The membranes were allowed to air dry and then immersed in filtered substrate solutions containing 2 mg/mL of substrate compound and 0.68 μL/mL of 30% hydrogen peroxide in citrate/phosphate buffer. The reaction was quenched after approximately three minutes with a water rinse. The colored spots were quantitated with a reflectance densitometer (Gretag model 183). The results are presented in Table II in arbitrary units of color density.

[1] = molecular target: T2, HRP conjugated anti RSV monoclonal antibody (Armoracia rusticana, UniProt P00433); experiment: Sandwich immunoassay for RSV on IMMUNODYNE nylon membrane, HRP-labelled antibody, colored spot read with densitometer; format: biochemical, Horseradish; conditions: for intensity of the colored spot (color density): substrate 2 mg/mL
T2 sequence (P00433 31-338 limits assumed): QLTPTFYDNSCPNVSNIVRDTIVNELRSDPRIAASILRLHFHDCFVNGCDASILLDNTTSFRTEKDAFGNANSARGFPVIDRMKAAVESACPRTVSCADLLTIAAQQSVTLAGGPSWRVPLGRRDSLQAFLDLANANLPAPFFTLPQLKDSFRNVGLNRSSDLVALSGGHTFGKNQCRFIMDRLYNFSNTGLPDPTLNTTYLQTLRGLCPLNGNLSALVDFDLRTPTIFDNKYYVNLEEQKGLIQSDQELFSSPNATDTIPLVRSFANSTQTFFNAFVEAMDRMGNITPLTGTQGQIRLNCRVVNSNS
Protocol: Ten μg of anti RSV antibody in 2 μl of carbonate buffer (50 mM, pH 9.5) were applied to an IMMUNODYNE™ nylon membrane with a micropipette. The membrane was incubated with a TRIS buffered solution of casein to block the remaining sites, and dried. The membrane was assembled into a device which allows liquids to be passed through the membrane and into an absorbent pad. Serial dilutions of a 300 ng stock of RSV infected HEp-2 cells were prepared in a buffer containing TRIS, sodium chloride, EDTA and a detergent. 150 μl of this material was passed through the membrane. Another antibody coated membrane was treated with 300 ng of uninfected cells as a control.
The membranes were washed with TRIS buffered saline (TBS) and incubated with HRP conjugated anti RSV monoclonal antibody in TRIS containing casein. After two washings with TBS buffer, the membranes were treated with citrate/phosphate buffered (pH 5.0) solutions of DAT and DAB (2 mg/mL) containing hydrogen peroxide. After a five minute incubation, the enzymatic reaction was stopped by the addition of TBS, and the intensity of the colored spots was compared using a densitometer (Model 183, Gretag Ltd., CH-8105 Regensdorf, Switzerland). The background control substracted results of this experiment are presented in Table 1 in arbitrary units of color density.

[2] = IMMUNODYNE nylon membrane, amount of HRP 30 pg
[3] = IMMUNODYNE nylon membrane, amount of HRP 0.3 ng
[4] = IMMUNODYNE nylon membrane, amount of HRP 3 ng
[5] = IMMUNODYNE nylon membrane, amount of HRP 30 ng
[6] = IMMUNODYNE nylon membrane, amount of HRP 0.3 mg
[7] = Nitrocellulose membrane, amount of HRP 30 pg
[8] = Nitrocellulose membrane, amount of HRP 0.3 ng
[9] = Nitrocellulose membrane, amount of HRP 3 ng
[10] = Nitrocellulose membrane, amount of HRP 30 ng
[11] = Nitrocellulose membrane, amount of HRP 0.3 mg
[12] = 11 ng of infected cells, pH 5.0, five minute incubation
[13] = 33 ng of infected cells, pH 5.0, five minute incubation
[14] = 100 ng of infected cells, pH 5.0, five minute incubation
[15] = 300 ng of RSV infected HEp-2 cells, pH 5.0, hydrogen peroxide, five minute incubation, background control subtracted
[16] = Control: 300 ng of uninfected cells, pH 5.0, five minute incubation

Row | Structure (SMILES) | color density of spot (Horseradish peroxidase; [2]) | color density of spot (Horseradish peroxidase; [3]) | color density of spot (Horseradish peroxidase; [4]) | color density of spot (Horseradish peroxidase; [5]) | color density of spot (Horseradish peroxidase; [6]) | color density of spot (Horseradish peroxidase; [7]) | color density of spot (Horseradish peroxidase; [8]) | color density of spot (Horseradish peroxidase; [9]) | color density of spot (Horseradish peroxidase; [10]) | color density of spot (Horseradish peroxidase; [11]) | intensity of the colored spot (color density) [1, 12] | intensity of the colored spot (color density) [1, 13] | intensity of the colored spot (color density) [1, 14] | intensity of the colored spot (color density) [1, 15] | color reading on the densitometer, in words ([1]; 300 ng of infected cells) | intensity of the colored spot (color density) [1, 16] | amount of infected cells down to which stable, deeply colored spots well above control values were obtained ([1]; RSV infected HEp-2 cells) [ng]
1 | Nc1cc(Cl)c(Cl)cc1N [4,5-Dichloro-1,2-phenylenediamine] | .00 arbitrary units | .00 arbitrary units | .10 arbitrary units | .41 arbitrary units | .48 arbitrary units | .02 arbitrary units | .10 arbitrary units | .31 arbitrary units | .43 arbitrary units | .60 arbitrary units | – | – | – | – | – | – | –
2 | Nc1ccc(Cl)cc1N [4-Chloro-1,2-phenylenediamine] | .06 arbitrary units | .12 arbitrary units | .68 arbitrary units | 1.89 arbitrary units | 2.24 arbitrary units | .09 arbitrary units | .26 arbitrary units | .55 arbitrary units | .87 arbitrary units | 1.25 arbitrary units | – | – | – | – | – | – | –
3 | Nc1ccc(-c2ccc(N)c(N)c2)cc1N [DAB, 3,3'-diaminobenzidine, reference compound] | .00 arbitrary units | .04 arbitrary units | .22 arbitrary units | .78 arbitrary units | 1.67 arbitrary units | .00 arbitrary units | .04 arbitrary units | .22 arbitrary units | .43 arbitrary units | 1.03 arbitrary units | .04 arbitrary units | .03 arbitrary units | .04 arbitrary units | .07 arbitrary units | barely perceptible color reading | 0 arbitrary units | –
4 | Cc1cc(N)c(N)cc1C [4,5-Dimethyl-1,2-phenylenediamine] | .00 arbitrary units | .05 arbitrary units | .22 arbitrary units | .50 arbitrary units | .53 arbitrary units | .03 arbitrary units | .11 arbitrary units | .22 arbitrary units | .43 arbitrary units | .55 arbitrary units | – | – | – | – | – | – | –
5 | Cc1ccc(N)c(N)c1 [DAT, 3,4 Diaminotoluene] | .04 arbitrary units | .21 arbitrary units | .54 arbitrary units | .85 arbitrary units | .99 arbitrary units | .03 arbitrary units | .09 arbitrary units | .10 arbitrary units | .28 arbitrary units | .38 arbitrary units | .28 arbitrary units | .37 arbitrary units | .57 arbitrary units | .82 arbitrary units | – | .24 arbitrary units | 33
6 | Cc1cc(-c2cc(C)c(N)c(C)c2)cc(C)c1N [TMB, 3,3',5,5'-tetramethylbenzidine, reference compound] | .00 arbitrary units | .00 arbitrary units | .11 arbitrary units | .19 arbitrary units | .23 arbitrary units | .01 arbitrary units | .04 arbitrary units | .08 arbitrary units | .09 arbitrary units | .09 arbitrary units | – | – | – | – | – | – | –
